What was measured:
[1] = system: RNA-G4 (RNA, G4) GGGAAAAGGCGCGCGGAAGGGG; test: ThT fluorescence titration; conditions: Na+ (PBS), ThT 3 µM, ODN 0-6 µM, 491 nm, fitted to 1:1 model, unit not given
[2] = system: ssDNA-G4-Fw (DNA, G4) CGGGAAAAGGCGCGCGGAAGGGGT; test: ThT fluorescence titration; conditions: Na+ (PBS), ThT 3 µM, ODN 0-6 µM, 491 nm, fitted to 1:1 model, unit not given

Cc1ccc2c(c1)sc(-c1ccc(N(C)C)cc1)[n+]2C was tested, and the association constant [1] was 2.90 × 10^6 and the association constant [2] was 2.72 × 10^6.

— article PMC7404261 (2020)
